Source: patent publication US20230233144A1, “Method for Determining Medication Adherence and Taggants Therefo” (The Regents of the University of Colorado, A Body Corporate, priority 2021, published 2023)
Where two headings read alike, the source gives them in different places.

Legend:
[1] = Daily 5+ ATP to rats for six days, 5+ ATP/1+ ATP ratio in dried blood spots by mass spectrometry; conditions: rat, red blood cells in dried blood spots, 100 mcg, in vivo ATP pool
Text: Once each day, blood spot samples were taken from each rat and dried.
The in vivo ATP pool is large, the half-life of ATP is relatively long, 3 days in rats, corresponding to about 10 days in humans.

[2] = ATP half-life corresponding value in humans; conditions: human, in vivo, corresponding to the rat value
Text: The in vivo ATP pool is large, the half-life of ATP is relatively long, 3 days in rats, corresponding to about 10 days in humans. […] Given the long half-life of ATP, the measurement for gradients of adherence is analogous to hemoglobin A1C as a measure of gradients of glucose exposure over the preceding months.

[3] = in vivo
Text: Example 2: An assay for a tenofovir (a PrEP drug) anabolite, tenofovir-diphosphate in red blood cells, which may be collected in dried blood spots (DBS), is disclosed as an adherence assessment. […] This enables assessment of cumulative dosing, indicative of degrees or gradients of adherence, over the preceding 1-2 months for tenofovir-based PrEP. This is analogous to how hemoglobin A1C works for cumulative glucose exposure. […] FIG. 3 illustrates how taggant tenofovir diphosphate concentration in dried blood spots is used in clinical trials to correlate and interpret medication adherence based upon TFV-DP concentration in DBS.

SMILES | half-life [1] [h] | half-life [2] [h] | half-life ([3]; human) [h] | accumulation from a single dose to steady-state [3] [fold] | time of build up in DBS until steady-state plateau [3]
Nc1ncnc2c1ncn2[C@@H]1O[C@H](COP(=O)(O)OP(=O)(O)OP(=O)(O)O)[C@@H](O)[C@H]1O [ATP, adenosine triphosphate] | 72 | ~240 |  |  | 
CC(Cn1cnc2c(N)ncnc21)OCP(=O)(O)OP(=O)(O)OP(=O)(O)O (stereo in doubt) [TFV-DP, tenofovir-diphosphate] |  |  | 408 | 25 | approximately 60 days
